Consider twelve molecules from US4954358A, “Multiplication inhibitor for Bacillus cereus” (priority 1986, dated 1990).

Holding throughout (type): cell-based
Assay [1] has as its system total viable active bacteria. Put plainly: Keeping test, potato salad not contaminated with Bacillus cereus, 30° C. To be noted: time without smell of putrefaction or change in outward appearance. On the procedure: (§1) Potato salad was prepared according to the following recipe.
(§2) Mayonnaise in the proportion of 10% by weight against the above materials was combined with various chemicals of prescribed concentrations listed in Table 5 and these were evenly mixed with the above food materials. Mixed specimens were prepared by inoculating Bacillus cereus in the form of a spore suspension in such a way as to make the bacterial number n×10^2 per gram on the final specimen.
(§3) The potato salad thus prepared was packed into plastic containers and left standing at 30° C. The bacterial number of total viable active bacteria and that of Bacillus cereus were measured with respect to the changes with time by the same method as in Example 1.
(§4) The effective keeping time and the figures in the upper and the lower spaces for each chemical in the list are used in the same meanings as in Example 4.

The test system of assay [2] is Bacillus cereus. Put plainly: Keeping test, potato salad contaminated with Bacillus cereus, 30° C. To be noted: time until Bacillus cereus 10^6 /g or more. On the procedure: as §1, §2
The same Bacillus cereus as in Example 1 was employed for this example.
as §3, §4

For assay [3], the system named is Bacillus cereus. Put plainly: MIC, agar plate dilution method on standard nutrient agar. To be noted: for minimum growth inhibiting concentration (MIC): Bacillus cereus spores, 37° C., 24 hours, judged with the naked eye; for growth inhibition effect against Bacillus cereus: standard nutrient agar, result in words. As to the method:
(§5) The minimum growth inhibiting concentration (MIC) of various antibacterial substances against Bacillus cereus and other general putrefying bacteria were measured by using a standard nutrient agar (made by Difco Corp.) and by introducing the agar plate dilution method.
(§6) On a plain culture medium on which chemicals were placed in a stepwise dilution system the liquid spore suspension (×10^8 /ml) with respect to the strains of the genus of Bacillus and the respective pre-culture mediums (37° C., 24 hours) provided by Brain Heart Infusion Broth with respect to the other strains were smeared.

For a further assay, the system named is Bacillus coaglans. The assay is described as above. To be noted: Bacillus coaglans spores, 37° C., 24 hours. On the procedure: as §5, §6
In a further assay the test system is Bacillus licheniformis. Described as above. To be noted: Bacillus licheniformis spores, 37° C., 24 hours. On the procedure: as §5, §6
The subject of a further assay is Bacillus megaterium. Described as above. To be noted: Bacillus megaterium spores, 37° C., 24 hours. As to the method:
as §5, §6

The test system of another assay is Bacillus subtilis. Described as above. To be noted: Bacillus subtilis spores, 37° C., 24 hours. On the procedure:
as §5, §6

Another assay deals with Lactobacillus casei. The assay is described as above. To be noted: 37° C., 24 hours. As to the method: as §5, §6
In assay [4] the test system is Leuconostoc mesenteroides. The assay is described as above. The settings on record: 37° C., 24 hours. On the procedure:
as §5, §6

A further assay concerns Staphylococcus aureus. The description is as above. To be noted: 37° C., 24 hours. As to the method: as §5, §6
In a further assay the test system is Streptococcus faecalis. The description is as above. The settings on record: 37° C., 24 hours. On the procedure: as §5, §6
In another assay the test system is total viable bacteria. Put plainly: Keeping test, cooked rice not contaminated with Bacillus cereus, 30° C. To be noted: time without smell of putrefaction or change in outward appearance.
The test system of assay [5] is Bacillus cereus. Put plainly: Keeping test, cooked rice contaminated with Bacillus cereus, 30° C. The settings on record: for Effective keeping time: cooked rice contaminated with Bacillus cereus, 30° C., time until Bacillus cereus 10^6 /g or more; for effectiveness against Bacillus cereus in tests with actual food: cooked rice (Example 4), result in words. As to the method:
Two hundred grams of polished rice was washed in water, and with the addition of 240 ml of water, it was cooked for approximately 15 minutes in an electric rice-cooker which was of the type in public use. The rice cooked was left standing in hot steam for 10 minutes, and then left to cool off at room temperature. On the other hand, a suspension of spores of Bacillus cereus was prepared and added to the cooked rice, which had cooled off, in the proportion of n×10^2 to 1 g final specimen. Specimens were prepared by mixing the rice evenly with addition of the spores.
The cooked rice was put in a plastic case for each 120 g and its temperature was maintained at 30° C., and the number of total viable bacteria and the number of Bacillus cereus were measured periodically using a standard agar culture medium (37° C., 48 hours) and a polymyxin BCW agar culture medium with 5% egg yellow (37° C., 24 hours) for each In parallel with this measurement of the bacterium number, the specimens were examined concerning the outward appearance and the possible smell of putrefaction.
Each of the chemicals shown in Table 4 was dissolved in 20 ml of water to form an aqueous solution of a set concentration.

As for `CCO` [Ethyl alcohol], the Effective keeping time in assay [1] (chemical 1% by weight) was found to be 29.2 h; with Bacillus cereus [2] (chemical 1% by weight), 10.0 h.
For the molecule `O=P1([O-])OP(=O)([O-])OP(=O)([O-])OP(=O)([O-])OP(=O)([O-])OP(=O)([O-])O1.[Na+].[Na+].[Na+].[Na+].[Na+].[Na+]` [Sodium hexametaphosphate], the “minimum growth inhibiting concentration (MIC)” value in the assay on Bacillus cereus [3] (in %), with Bacillus coaglans (in %), in the assay with Bacillus licheniformis (in %), in the assay on Bacillus megaterium (in %), in the assay on Bacillus subtilis (in %) and in the assay with Lactobacillus casei (in %) was 0.125 in each case. For the same molecule, the “minimum growth inhibiting concentration (MIC)” value (in assay [4] (in %); with Staphylococcus aureus (in %); in the assay on Streptococcus faecalis (in %)) was 0.125 in each case. Further, in the assay with Bacillus cereus [3], the “growth inhibition effect against Bacillus cereus” value (shortened to “growth inhibition effect”) is given as “showed effectiveness”. Also, the Effective keeping time in the assay with total viable bacteria (chemical 0.5% by weight) was 35.0 h; in the assay on Bacillus cereus [5] (chemical 0.5% by weight) it was 9.2 h.
With `O=C([O-])c1ccccc1.[Na+]` [sodium benzoate], the values for the Effective keeping time (in assay [1] (chemical 0.1% by weight); with Bacillus cereus [2] (chemical 0.1% by weight)) were 92.0 h and 36.2 h, respectively.
For the molecule `CCCCCCCCCC(=O)OCC(O)CO` (centres unmarked) [Capric acid monoglyceride], the minimum growth inhibiting concentration (MIC) with Bacillus cereus [3] was 0.01%; in the assay on Bacillus coaglans it was 0.01%; in the assay on Bacillus licheniformis, 0.01%; in the assay on Bacillus megaterium, 0.01%; in the assay with Bacillus subtilis, 0.01%; in the assay on Lactobacillus casei (in %), 0.025. The “minimum growth inhibiting concentration (MIC)” value (in assay [4] (in %); with Staphylococcus aureus (in %); with Streptococcus faecalis (in %)) was 0.025 in each case. For the same molecule, the “growth inhibition effect” value with Bacillus cereus [3] was “showed effectiveness”. The Effective keeping time in the assay on total viable bacteria (chemical 0.01% by weight) was found to be 35.0 h; in the assay on Bacillus cereus [5] (chemical 0.01% by weight), 8.4 h.
In the case of Sodium polyphosphate, the minimum growth inhibiting concentration (MIC) was determined as 0.5% in the assay on Bacillus cereus [3]; 0.5% with Bacillus coaglans; 0.025 with Bacillus licheniformis (in %); 0.025 in the assay on Bacillus megaterium (in %); 0.025 in the assay with Bacillus subtilis (in %); 0.5% in the assay on Lactobacillus casei. Further, the minimum growth inhibiting concentration (MIC) (in assay [4]; in the assay on Staphylococcus aureus; in the assay on Streptococcus faecalis) was 0.5% each time. Further, in the assay with Bacillus cereus [3], the “growth inhibition effect” value is given as “showed effectiveness”. The Effective keeping time with total viable bacteria (chemical 0.5% by weight) was 35.0 h; in the assay on Bacillus cereus [5] (chemical 0.5% by weight), 9.0 h.
Lysozyme: the minimum growth inhibiting concentration (MIC) in the assay on Bacillus cereus [3] is more than 0.05%; with Bacillus coaglans, 0.05%; in the assay on Bacillus licheniformis it was more than 0.05%; in the assay with Bacillus megaterium, 0.05%; in the assay with Bacillus subtilis, 0.02%; in the assay with Lactobacillus casei, more than 0.05%. Moreover, the minimum growth inhibiting concentration (MIC) (in assay [4]; in the assay with Staphylococcus aureus; with Streptococcus faecalis) was more than 0.05% each time. Also, the results for the Effective keeping time in the assay on total viable bacteria (chemical 0.05% by weight) and in the assay with Bacillus cereus [5] (chemical 0.05% by weight) were 35.0 h and 8.5 h, respectively.
Regarding `CC(=O)[O-].[Na+]` [Sodium acetate], the minimum growth inhibiting concentration (MIC) with Bacillus cereus [3], with Bacillus coaglans, in the assay on Bacillus licheniformis, in the assay on Bacillus megaterium, in the assay with Bacillus subtilis and in the assay with Lactobacillus casei was more than 0.5% in each case. For the same molecule, the minimum growth inhibiting concentration (MIC) (in assay [4]; in the assay with Staphylococcus aureus; in the assay with Streptococcus faecalis) was more than 0.5% throughout. Also, the Effective keeping time in the assay with total viable bacteria (chemical 0.4% by weight) is 43.0 h; with Bacillus cereus [5] (chemical 0.4% by weight), 11.5 h; in [1] (chemical 0.4% by weight), 27.0 h; in the assay with Bacillus cereus [2] (chemical 0.4% by weight) it was 10.0 h. Also, the “effectiveness against Bacillus cereus in tests with actual food” value with Bacillus cereus [5] was “proved effective, though the effect is of no practical value”.
Regarding Caprylic acid monoglyceride, the minimum growth inhibiting concentration (MIC) with Bacillus cereus [3], with Bacillus coaglans, in the assay with Bacillus licheniformis, in the assay with Bacillus megaterium, with Bacillus subtilis and in the assay with Lactobacillus casei was 0.05% throughout. Also, the minimum growth inhibiting concentration (MIC) in assay [4] was found to be 0.05%; in the assay with Staphylococcus aureus, 0.1%; with Streptococcus faecalis, 0.05%. In addition, the “growth inhibition effect” value in the assay with Bacillus cereus [3] was “showed effectiveness”. For the same molecule, the Effective keeping time in the assay on total viable bacteria (chemical 0.05% by weight) was 35.0 h; in the assay on Bacillus cereus [5] (chemical 0.05% by weight) it was 8.6 h.
For the molecule protamine, the “growth inhibition effect” value in the assay on Bacillus cereus [3] is “showed effectiveness”. Also, the “effectiveness against Bacillus cereus in tests with actual food” value in the assay with Bacillus cereus [5] is listed as “only protamine has proved to be effective”.
Regarding protamine sulfate, the minimum growth inhibiting concentration (MIC) in the assay with Bacillus cereus [3] is 0.1%; with Bacillus coaglans, 0.05%; in the assay with Bacillus licheniformis it was 0.05%; with Bacillus megaterium, 0.05%; in the assay on Bacillus subtilis, 0.05%; in the assay with Lactobacillus casei, 0.1%. Moreover, the minimum growth inhibiting concentration (MIC) in assay [4] was found to be 0.1%; with Staphylococcus aureus, 0.05%; with Streptococcus faecalis it was 0.1%.
With `C/C=C/C=C/C(=O)O` [Sorbic acid], the Effective keeping time in [1] (chemical 0.1% by weight) came to 96.0 h; in the assay on Bacillus cereus [2] (chemical 0.1% by weight), 38.6 h.
`O=P([O-])([O-])OP(=O)([O-])[O-].[Na+].[Na+].[Na+].[Na+]` [Sodium pyrophosphate]: the minimum growth inhibiting concentration (MIC) with Bacillus cereus [3], in the assay on Bacillus coaglans, in the assay on Bacillus licheniformis, in the assay on Bacillus megaterium, in the assay on Bacillus subtilis and in the assay with Lactobacillus casei was more than 0.5% in each case. The minimum growth inhibiting concentration (MIC) (in assay [4]; in the assay on Staphylococcus aureus; in the assay on Streptococcus faecalis) was more than 0.5% throughout. Also, the figures for the Effective keeping time in the assay on total viable bacteria (chemical 0.5% by weight) and in the assay on Bacillus cereus [5] (chemical 0.5% by weight) were 35.0 h and 8.6 h, respectively.
